Data as given in US20030199431A1, “Modified peptide nucleic acid (PNA) molecules” (priority 1999, published 2003).

Legend:
E. coli K12 = assay: Bacterial growth inhibition with PNA 249 (without peptide, FtsZ) and peptide 250, 100% Mueller-Hinton broth (Table 18); assay type: cell-based, Escherichia coli; conditions: for Growth inhibition effect: low concentration end
test culture = assay type: cell-based; conditions: 37° C., 16 hours

Substance	Peptide concentration at which the peptide alone may show growth inhibition effect (E. coli K12)	Growth inhibition effect (E. coli K12)	Growth inhibition (test culture)
H-CG-KLAKALKKLL-NH2 (H-CGKLAKALKKLL-NH2) [PNA 250, peptide alone, also used for PNA 174]	above 2500 nM	neither 249 nor 250 alone nor 249 and 250 together show any useful effect	
H-ado-TTC AAA CAT AGT-NH2 [PNA 249]		neither 249 nor 250 alone nor 249 and 250 together show any useful effect	
H-KFFKFFKFFK-ado-TGA CTA GAT GAG-NH2 [PNA 136]			No growth inhibition was detected
